Format in all cases: cell-based
The subject of assay [1] is PTGS1. The assay can be described thus: Gene expression custom microarray, human skin fibroblasts (Example 1): PTGS1. As to conditions: human skin fibroblasts, 10 uM, 24 hr. An excerpt:
(§1) Cell cultures: A human skin fibroblast cell culture (or cultures) was obtained through the Coriell Cell Repository from the National Institute on Aging Cell Repository (Camden, N.J.), or Promocell GmbH (Heidelberg, Germany). The initial culture was selected from the following cell lines: AG13066, AG11557, AG11796 or GM03651E. The cell lines were derived from donors as follows:
(§2) Experimental phase: When the appropriate quantity of cells had been grown, they were detached as described above, but at the final step were seeded into each well of one or more 6 well dishes. Each well received 2 ml of the cell suspension so they were seeded equally. The dishes were returned to the incubator until 85-95% confluency was reached.
(§3) It is at this stage that all wells were rinsed in PBS after aspirating the growth media. The compound(s) to be tested were previously mixed into a suitable solvent (e.g., DMSO or ethanol) that can be diluted to the desired concentration of test compound (10 μl) in the culture wells without exceeding maximum solvent concentrations and adversely effecting cell viability, and mixed with basal media. NOTE: Standard maximum levels of solvent are 0.1% for DMSO and 0.5% for ETOH. The concentration of each test compound is found in Tables 1 & 2.
(§4) Every 2 wells on the 6 well plate served as a biological replicate for the purposes of RNA isolation and genetic expression evaluations making each 6 well dish an n=3 for the test compound(s) contained in the media. Negative control plates (no test compound(s) and only basal media) were also generated. The plates were returned to the incubator for 24 hrs.
(§5) At the end of the 24 hr time period, the plates were removed from the incubator, the test media aspirated, and the cells rinsed with PBS. RNA isolation is performed using the BioRad Aurum Total RNA Mini Kit (Hercules, Calif.) per manufacturer's protocol; which is described, in brief, below: • Add 350 μl of lysis buffer to each well. Pipet multiple times to ensure thorough lysis. Add lysed cells to the collection tube. • Add 350 μl of 70% ETOH to the collection tube and mix thoroughly. • Pipet the generated lysate onto the spin column placed in a new 2 ml tube. Centrifuge for 30 sec between 8,000 and 10,000 g. • Place the spin column containing the now bound RNA, in a new 2 ml tube. Add 700 μl of low stringency wash solution to the spin column. Centrifuge for 30 sec between 8,000 and 10,000 g. Discard the flow through and replace spin column. • Add 80 μl of DNase I dilution to the spin column and incubate at room temperature for 15 minutes. • Add 700 μl of high stringency wash solution to the column and centrifuge for 30 sec between 8,000 and 10,000 g. Discard flow through. • Add 700 μl of low stringency wash solution to the column and centrifuge for 60 sec between 8,000 and 10,000 g. Discard flow through. • Centrifuge for 2 minutes to remove residual wash solution. • Transfer spin column to new 1.5 ml collection tube and add 80 μl of elution solution to the column. Allow 1 minute for saturation of the membrane and then centrifuge for 2 minutes to complete the RNA elution. • Quantify the quantity of RNA and store at −20 C° until use (no more than 1 month)
(§6) The genes tested were: • Cannabinoid receptor 1 (CB1(CNR1)) • Cannabinoid receptor 2 (CB2 (CNR2)) • Fatty acid amide hydrolase (FAAH) • Monoacylglycerol lipase (MGLL, i.e., MAGL) • Peroxisome proliferator-activated receptor gamma (PPARG) • Nuclear factor kappa-light-chain-enhancer of activated B cells (NFκβ) • Interleukin 1 Alpha (IL1alpha) • Cyclooxygenase 1 (PTGS1, i.e., COX1) • Transient receptor potential cation channel subfamily A member 1 (TRPA1) • Transient receptor potential cation channel subfamily V member 1 (TRPV1) • Transient receptor potential cation channel subfamily M member 8 (TRPM8) • Hemoglobin Subunit Beta (HBB) REFERENCE GENE • Ribosomal Protein L13a (RPL13A) REFERENCE GENE […]

The subject of assay [2] is MAGL. Kind of assay: Gene expression custom microarray, human skin fibroblasts (Example 1): MAGL.
Description: as §1, §2, §3, §4, §5, §6

In assay [3] the test system is FAAH. Kind of assay: Gene expression custom microarray, human skin fibroblasts (Example 1): FAAH.
Description: as §1, §2, §3, §4, §5, §6

For assay [4], the system named is CNR1. The assay can be described thus: Gene expression custom microarray, human skin fibroblasts (Example 1): CNR1.
Description: as §1, §2, §3, §4, §5, §6

Assay [5] relates to NFKB1. The assay can be described thus: Gene expression custom microarray, human skin fibroblasts (Example 1): NFKB1. As to conditions: human skin fibroblasts, 10 uM, 24 hr.
Description: as §1, §2
It is at this stage that all wells were rinsed in PBS after aspirating the growth media. The compound(s) to be tested were previously mixed into a suitable solvent (e.g., DMSO or ethanol) that can be diluted to the desired concentration of test compound (10 μl) in the culture wells without exceeding maximum solvent concentrations and adversely effecting cell viability, and mixed with basal media. NOTE: Standard maximum levels of solvent are 0.1% for DMSO and 0.5% for ETOH.
as §4, §5
The genes tested were: • Cannabinoid receptor 1 (CB1(CNR1)) • Cannabinoid receptor 2 (CB2 (CNR2)) • Fatty acid amide hydrolase (FAAH) • Monoacylglycerol lipase (MGLL, i.e., MAGL) • Peroxisome proliferator-activated receptor gamma (PPARG) • Nuclear factor kappa-light-chain-enhancer of activated B cells (NFκβ) • Interleukin 1 Alpha (IL1alpha) • Cyclooxygenase 1 (PTGS1, i.e., COX1) • Transient receptor potential cation channel subfamily A member 1 (TRPA1) • Transient receptor potential cation channel subfamily V member 1 (TRPV1) • Transient receptor potential cation channel subfamily M member 8 (TRPM8) • Hemoglobin Subunit Beta (HBB) REFERENCE GENE • Ribosomal Protein L13a (RPL13A) REFERENCE GENE

Where [6] appears, read: human skin fibroblasts, 10 uM, 24 hr.

For `C=C(C)[C@@H]1CCC(C)=C[C@H]1c1c(O)cc(CCCCC)cc1O` [CBD, cannabidiol, reference compound], the fold induction at 10 µM in assay [1] (Skin fibroblast, read-out: PTGS1↓ gene expression, fold increase or decrease vs untreated cells) was determined as 4.2; in assay [2] (Homo sapiens, Skin fibroblast, 24 h, read-out: MAGL↓ gene expression, fold increase or decrease vs untreated cells), 1.8; in assay [3] (Homo sapiens, Skin fibroblast, 24 h, read-out: FAAH↓ gene expression, fold increase or decrease vs untreated cells), 2.2; in assay [4] (Homo sapiens, Skin fibroblast, 24 h, read-out: CNR1↑ gene expression, fold increase or decrease vs untreated cells), 1.5; in assay [5] (Skin fibroblast, read-out: NFKB1↓ gene expression, fold increase or decrease vs untreated cells), 2.3.

Consider `CCCCCCCCCCCCCCCC(=O)NCCO` [N-palmitoylethanolamide], for which, in assay [1], the “PTGS1↓ gene expression, fold increase or decrease vs untreated cells” value amounted to 1.1 fold. The “MAGL↓ gene expression, fold increase or decrease vs untreated cells” value in assay [2] (setting [6]) worked out at 2.8 fold. Also, the “FAAH↓ gene expression, fold increase or decrease vs untreated cells” value in assay [3] (setting [6]) is given as −1.1 fold. Besides, the “CNR1↑ gene expression, fold increase or decrease vs untreated cells” value in assay [4] (setting [6]) is 5.9 fold. For the same compound, in assay [5], the “NFKB1↓ gene expression, fold increase or decrease vs untreated cells” value is reported as 1.5 fold.
